According to the supplement of paper PMC10307832:

Assays:
Experiment in all cases: relative viability (nuclei count vs DMSO), 5 days (fraction); higher = more cells survive
SGI-1776 + Crizotinib = compound: CN1CCC(CNc2ccc3ncc(-c4cccc(OC(F)(F)F)c4)n3n2)CC1 [SGI-1776] + C[C@@H](Oc1cc(-c2cnn(C3CCNCC3)c2)cnc1N)c1c(Cl)ccc(F)c1Cl [Crizotinib] (partner 1 µM)
Procedure, shortened: (§1)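 Lung cancer cell lines were seeded in 1536-well plates and dosed by pin tool the next day, with either a single drug or a fixed anchor-drug dose combined with five library-drug doses (not always all listed) spaced in √10 steps. Five days later, one step fixed the cells and stained their nuclei (final 0.05% Triton X-100, 1% formaldehyde, 1 ug/ml Hoechst), and nuclei were counted on 4× images. Relative viability is the nuclei count in treated wells divided by the count in vehicle wells, and each value is the median of duplicate plates.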

Entinostat + Luminespib = compound: Nc1ccccc1NC(=O)c1ccc(CNC(=O)OCc2cccnc2)cc1 [Entinostat] + CCNC(=O)c1noc(-c2cc(C(C)C)c(O)cc2O)c1-c1ccc(CN2CCOCC2)cc1 [Luminespib] (partner 0.01 µM)
Procedure, shortened: as §1

Entinostat + Crizotinib = compound: Nc1ccccc1NC(=O)c1ccc(CNC(=O)OCc2cccnc2)cc1 [Entinostat] + C[C@@H](Oc1cc(-c2cnn(C3CCNCC3)c2)cnc1N)c1c(Cl)ccc(F)c1Cl [Crizotinib] (partner 1 µM)
Procedure, shortened: as §1

Entinostat + Pemetrexed = compound: Nc1ccccc1NC(=O)c1ccc(CNC(=O)OCc2cccnc2)cc1 [Entinostat] + Nc1nc2[nH]cc(CCc3ccc(C(=O)N[C@@H](CCC(=O)O)C(=O)O)cc3)c2c(=O)[nH]1 [Pemetrexed] (partner 0.2 µM)
Procedure, shortened: as §1

Cell Line	relative viability (SGI-1776 + Crizotinib; first compound 0.08 µM)	relative viability (SGI-1776 + Crizotinib; first compound 0.8 µM)	relative viability (SGI-1776 + Crizotinib; first compound 2.53 µM)	relative viability (SGI-1776 + Crizotinib; first compound 8 µM)	relative viability (Entinostat + Luminespib; first compound 0.02 µM)	relative viability (Entinostat + Luminespib; first compound 0.06325 µM)	relative viability (Entinostat + Luminespib; first compound 0.2 µM)	relative viability (Entinostat + Luminespib; first compound 0.6325 µM)	relative viability (Entinostat + Luminespib; first compound 2 µM)	relative viability (Entinostat + Crizotinib; first compound 0.02 µM)	relative viability (Entinostat + Crizotinib; first compound 0.06325 µM)	relative viability (Entinostat + Crizotinib; first compound 0.2 µM)	relative viability (Entinostat + Crizotinib; first compound 0.6325 µM)	relative viability (Entinostat + Crizotinib; first compound 2 µM)	relative viability (Entinostat + Pemetrexed; first compound 0.02 µM)	relative viability (Entinostat + Pemetrexed; first compound 0.06325 µM)	relative viability (Entinostat + Pemetrexed; first compound 0.2 µM)	relative viability (Entinostat + Pemetrexed; first compound 0.6325 µM)	relative viability (Entinostat + Pemetrexed; first compound 2 µM)
201T	1.05	1.04	1.01	1.01	1.03	1.04	0.995	0.925	0.747	1.03	1.03	0.919	0.743	0.754	0.37	0.33	0.379	0.287	0.279
A549	0.789	0.843	0.553	0.138	–	–	–	–	–	0.775	0.863	0.743	0.449	0.111	–	–	–	–	–
A-427	0.849	0.92	0.974	0.601	1.01	1.03	0.83	0.651	0.582	0.808	1.06	0.864	0.665	0.545	1.03	0.971	0.922	0.904	0.765
ABC-1	0.989	1.17	0.707	0.317	0.661	0.49	0.609	0.555	0.358	0.925	1.24	1.17	0.814	0.28	–	–	–	–	–
BEN	0.799	0.851	0.844	0.628	0.217	0.32	0.263	0.472	0.349	0.985	0.884	0.997	0.631	0.31	0.88	1.02	0.891	0.564	0.413
CAL-12T	0.682	0.327	0.254	0.232	0.502	0.402	0.459	0.461	0.364	0.7	0.732	0.864	0.594	0.251	1.17	1.09	1.49	1.21	0.676
COR-L23	0.821	0.491	0.519	0.495	0.697	0.535	0.49	0.296	0.108	0.508	0.524	0.513	0.205	0.0924	0.21	0.184	0.197	0.179	0.167
COR-L 105	1.03	0.717	0.464	0.287	0.803	0.749	0.72	0.561	0.345	0.92	0.778	0.655	0.494	0.216	1.12	1.23	1.12	0.816	0.56
Calu-6	0.806	0.624	0.402	0.289	–	–	–	–	–	0.738	0.713	0.755	0.494	0.317	–	–	–	–	–
ChaGo-K-1	1.16	1.12	1.13	0.362	0.765	0.523	0.487	0.596	0.503	1.18	1.19	0.967	0.966	0.631	0.269	0.262	0.271	0.264	0.259
EBC-1	0.21	0.175	0.186	0.123	–	–	–	–	–	0.177	0.191	0.215	0.202	0.159	–	–	–	–	–
EKVX	0.847	1.01	0.977	0.882	0.986	0.913	0.794	0.801	0.427	0.81	0.977	1.03	0.819	0.432	0.402	0.376	0.385	0.344	0.273
EMC-BAC-2	0.838	0.7	0.701	0.461	1.15	1.15	1.02	0.768	0.529	0.812	0.702	0.708	0.522	0.368	0.434	0.432	0.416	0.361	0.341
EPLC-272H	0.832	0.891	0.909	0.772	0.209	0.187	0.31	0.262	0.264	0.924	0.872	0.933	0.61	0.322	0.391	0.322	0.304	0.244	0.248
H3255	1.03	1.01	0.896	0.62	1.02	0.954	0.652	0.613	0.321	0.9	0.747	0.777	0.452	0.286	0.586	0.57	0.549	0.414	0.378
HARA	1.17	1.17	1.01	0.775	0.534	0.732	0.752	0.584	0.201	1.02	1.02	1.05	0.974	0.565	0.233	0.22	0.31	0.257	0.247
HCC-15	0.819	0.816	0.761	0.764	0.352	0.301	0.261	0.359	0.257	0.792	0.744	0.745	0.548	0.307	0.237	0.215	0.237	0.197	0.159
HCC-44	0.818	0.828	0.867	0.764	1.04	0.889	0.741	0.505	0.324	0.773	0.614	0.453	0.339	0.22	0.63	0.604	0.631	0.562	0.564
HCC-78	0.352	0.311	0.346	0.318	–	–	–	–	–	0.37	0.293	0.234	0.163	0.141	0.922	0.873	0.946	0.871	0.908
